According to patent publication US10738057B2, “Tertiary alcohols as PI3K-γ inhibitors” (Incyte Corporation, priority 2017, dated 2020):
Where a name gives a salt, the structure may show the parent alone.

Legend:
[1] = target: PI3Kγ (p110γ) Recombinant Human Protein (Homo sapiens (Human), UniProt P48736); assay: PI3K-γ scintillation proximity assay; assay type: biochemical; details: 20 μM PIP2, 2 μM ATP, 13 nM PI3Kγ, 120 min, room temperature
In short: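 Radiometric SPA in 20 mM MOPS pH 6.7, 10 mM MgCl2, 5 mM DTT, 0.03% CHAPS, 2% DMSO. Stopped with EDTA and WGA SPA beads for scintillation counting. IC50 fitted from % solvent-control activity versus log concentration.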

[2] = target: PI3Kδ (p110δ/p85α) Recombinant Human Protein (Homo sapiens (Human), UniProt O00329); assay: PI3Kδ scintillation proximity assay; assay type: biochemical; details: 20 μM PIP2, 2 μM ATP, 3.4 nM PI3Kδ, 120 min, room temperature; read-out: PI3Kδ IC50
Chain of PI3Kδ (p110δ/p85α) Recombinant Human Protein (O00329 whole entry): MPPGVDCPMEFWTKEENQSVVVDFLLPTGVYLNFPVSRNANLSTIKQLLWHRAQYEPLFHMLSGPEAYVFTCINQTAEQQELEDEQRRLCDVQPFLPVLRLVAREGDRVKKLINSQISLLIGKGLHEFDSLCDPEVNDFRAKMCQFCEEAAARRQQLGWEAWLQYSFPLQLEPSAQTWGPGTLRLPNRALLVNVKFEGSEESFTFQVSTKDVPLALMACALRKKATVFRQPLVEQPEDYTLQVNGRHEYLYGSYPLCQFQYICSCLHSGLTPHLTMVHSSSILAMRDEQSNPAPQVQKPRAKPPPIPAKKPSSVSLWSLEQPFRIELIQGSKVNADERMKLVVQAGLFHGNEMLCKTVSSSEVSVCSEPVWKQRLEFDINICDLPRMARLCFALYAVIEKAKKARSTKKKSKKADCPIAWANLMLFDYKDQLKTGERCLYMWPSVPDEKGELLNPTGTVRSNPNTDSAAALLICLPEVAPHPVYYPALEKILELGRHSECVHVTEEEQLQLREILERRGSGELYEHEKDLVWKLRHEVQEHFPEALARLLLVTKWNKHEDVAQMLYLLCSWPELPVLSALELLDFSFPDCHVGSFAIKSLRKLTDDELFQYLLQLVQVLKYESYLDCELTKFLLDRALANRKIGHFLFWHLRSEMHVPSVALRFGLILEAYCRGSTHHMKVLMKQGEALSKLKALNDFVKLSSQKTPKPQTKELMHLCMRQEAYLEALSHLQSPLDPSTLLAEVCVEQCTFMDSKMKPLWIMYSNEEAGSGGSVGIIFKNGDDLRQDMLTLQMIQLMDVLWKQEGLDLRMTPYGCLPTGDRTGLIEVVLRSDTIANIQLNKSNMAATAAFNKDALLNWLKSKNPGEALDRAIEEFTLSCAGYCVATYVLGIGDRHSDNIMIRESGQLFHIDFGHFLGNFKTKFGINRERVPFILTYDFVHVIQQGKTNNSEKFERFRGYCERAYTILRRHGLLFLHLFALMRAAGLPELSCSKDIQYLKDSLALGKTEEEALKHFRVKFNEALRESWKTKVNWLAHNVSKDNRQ
Chain of PI3Kδ (p110δ/p85α) Recombinant Human Protein (P27986 whole entry partner): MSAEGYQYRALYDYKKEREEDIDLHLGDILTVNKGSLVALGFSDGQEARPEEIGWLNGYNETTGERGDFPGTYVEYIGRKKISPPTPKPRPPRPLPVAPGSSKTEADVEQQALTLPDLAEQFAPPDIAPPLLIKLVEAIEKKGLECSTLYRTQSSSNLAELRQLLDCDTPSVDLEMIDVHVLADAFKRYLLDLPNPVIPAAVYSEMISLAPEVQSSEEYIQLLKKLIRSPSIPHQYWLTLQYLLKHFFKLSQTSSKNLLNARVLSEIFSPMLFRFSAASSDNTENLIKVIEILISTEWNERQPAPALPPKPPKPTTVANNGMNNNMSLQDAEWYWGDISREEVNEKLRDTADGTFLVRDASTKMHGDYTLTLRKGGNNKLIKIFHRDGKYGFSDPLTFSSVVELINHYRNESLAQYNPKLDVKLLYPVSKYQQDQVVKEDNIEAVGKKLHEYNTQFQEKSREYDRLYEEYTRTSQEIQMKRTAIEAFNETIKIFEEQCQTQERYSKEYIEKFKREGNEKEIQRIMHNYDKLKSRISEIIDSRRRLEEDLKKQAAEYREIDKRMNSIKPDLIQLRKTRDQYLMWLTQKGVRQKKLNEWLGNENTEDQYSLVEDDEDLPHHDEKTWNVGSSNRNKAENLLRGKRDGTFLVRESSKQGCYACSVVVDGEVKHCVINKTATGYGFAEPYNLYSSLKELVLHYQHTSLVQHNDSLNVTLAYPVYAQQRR
In short: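 Recombinant human p110δ/p85α was run at room temperature in 20 mM MOPS pH 6.7, 10 mM MgCl2, 5 mM DTT, 0.03% CHAPS, 2% DMSO. Substrates were 20 µM PIP2 and 2 µM ATP with [γ-33P]ATP. Product was captured overnight on WGA SPA beads and counted by scintillation; IC50 fitted from percent of solvent control versus log concentration.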

[3] = tested on: Phosphorylated Ribosomal Protein S6 (RPS6) in THP-1 cells; assay: THP-1 RPS6 ELISA assay; assay type: cell-based, Human; details: Homo sapiens, THP-1, THP-1 cells, serum starved, 2 h compound, 10 nM MCP-1 for 15 min, phospho-RPS6 ELISA; read-out: PI3Kγ_THP1_RPS6_ELISA IC50
In short: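 Phospho-RPS6 in lysates measured by ELISA at 450 nm, corrected at 540 nm, after MCP-1 challenge (10 nM, 15 min) of THP-1 cells that were starved overnight and exposed to test compound for 2 h at 37° C, 2×10^5 cells/well. Curve fit of percent inhibition gives IC50.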

Chain of PI3Kγ (p110γ) Recombinant Human Protein (P48736 whole entry): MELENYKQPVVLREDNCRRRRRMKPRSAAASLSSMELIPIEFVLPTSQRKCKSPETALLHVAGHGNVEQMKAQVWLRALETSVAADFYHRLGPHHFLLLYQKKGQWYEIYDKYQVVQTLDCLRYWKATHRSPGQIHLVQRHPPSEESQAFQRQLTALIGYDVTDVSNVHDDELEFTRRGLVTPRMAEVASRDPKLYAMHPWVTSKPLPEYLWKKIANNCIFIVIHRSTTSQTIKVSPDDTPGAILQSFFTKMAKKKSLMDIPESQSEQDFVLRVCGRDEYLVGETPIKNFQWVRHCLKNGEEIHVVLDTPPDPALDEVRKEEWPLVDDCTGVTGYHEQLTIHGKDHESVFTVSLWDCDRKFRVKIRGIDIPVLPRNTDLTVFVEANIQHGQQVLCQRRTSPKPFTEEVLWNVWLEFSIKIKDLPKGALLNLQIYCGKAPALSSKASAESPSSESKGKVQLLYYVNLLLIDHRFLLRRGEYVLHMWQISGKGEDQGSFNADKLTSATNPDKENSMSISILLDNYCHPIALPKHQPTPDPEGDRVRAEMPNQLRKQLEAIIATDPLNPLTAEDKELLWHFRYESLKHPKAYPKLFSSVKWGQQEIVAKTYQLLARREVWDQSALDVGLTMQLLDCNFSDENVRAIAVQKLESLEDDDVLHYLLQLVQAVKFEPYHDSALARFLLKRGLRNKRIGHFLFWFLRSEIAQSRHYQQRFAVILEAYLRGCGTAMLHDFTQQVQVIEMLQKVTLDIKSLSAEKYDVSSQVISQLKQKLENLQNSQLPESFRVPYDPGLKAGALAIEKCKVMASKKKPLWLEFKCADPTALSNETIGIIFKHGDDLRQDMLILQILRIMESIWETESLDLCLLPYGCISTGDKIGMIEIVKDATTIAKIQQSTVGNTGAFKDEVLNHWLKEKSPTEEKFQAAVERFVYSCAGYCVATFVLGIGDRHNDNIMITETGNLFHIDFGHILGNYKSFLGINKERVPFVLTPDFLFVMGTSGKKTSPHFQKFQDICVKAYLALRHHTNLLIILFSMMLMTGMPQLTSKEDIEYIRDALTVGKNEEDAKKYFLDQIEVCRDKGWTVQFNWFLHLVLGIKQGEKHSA

| IC50 [1] [nM] | IC50 [2] [nM] | IC50 [3] [nM] | Structure (SMILES) |
| --- | --- | --- | --- |
| < 100 | < 100 | < 100 | Cc1ccc(C(C)(O)C(F)F)cc1-c1cnc2c(N)nc(-c3cn(C)nc3C)cn12 (stereo not drawn) [Example 38, 2-(3-(8-Amino-6-(1,3-dimethyl-1H-pyrazol-4-yl)imidazo[1,2-a]pyrazin-3-yl)-4-methylphenyl)-1,1-difluoropropan-2-ol] |
| < 100 | < 100 | < 100 | Cc1ccc(C(C)(O)C(F)F)cc1-c1cnc2c(N)nc(-c3c(C)n[nH]c3C)cn12 (stereo not drawn) [Example 39, 2-(3-(8-Amino-6-(3,5-dimethyl-1H-pyrazol-4-yl)imidazo[1,2-a]pyrazin-3-yl)-4-methylphenyl)-1,1-difluoropropan-2-ol] |
| < 100 | < 100 | 100 to 500 | Cc1ccc(C(C)(O)C(F)F)cc1-c1cnc2c(N)nc(-c3cn[nH]c3)cn12 (stereo not drawn) [Example 40, 2-(3-(8-Amino-6-(1H-pyrazol-4-yl)imidazo[1,2-a]pyrazin-3-yl)-4-methylphenyl)-1,1-difluoropropan-2-ol] |
| < 100 | 100 to 500 | 100 to 500 | Cc1cc(-c2cn3c(-c4cc(C(C)(O)C(F)F)ccc4C)cnc3c(N)n2)n(C)n1 (stereo not drawn) [Example 41, 2-(3-(8-Amino-6-(1,3-dimethyl-1H-pyrazol-5-yl)imidazo[1,2-a]pyrazin-3-yl)-4-methylphenyl)-1,1-difluoropropan-2-ol] |
| < 100 | 100 to 500 | 100 to 500 | Cc1ccc(C(C)(O)C(F)F)cc1-c1cnc2c(N)nc(-c3c(C)cnn3C)cn12 (stereo not drawn) [Example 42, 2-(3-(8-Amino-6-(1,4-dimethyl-1H-pyrazol-5-yl)imidazo[1,2-a]pyrazin-3-yl)-4-methylphenyl)-1,1-difluoropropan-2-ol] |
| < 100 | 100 to 500 | 500 to 1000 | Cc1ccc(C(C)(O)C(F)F)cc1-c1cnc2c(N)nc(-c3ccn(C)n3)cn12 (stereo not drawn) [Example 43, 2-(3-(8-Amino-6-(1-methyl-1H-pyrazol-3-yl)imidazo[1,2-a]pyrazin-3-yl)-4-methylphenyl)-1,1-difluoropropan-2-ol] |
| < 100 | 100 to 500 | < 100 | Cc1ccc(C(C)(O)C(F)F)cc1-c1cnc2c(N)nc(-c3ccc(CO)nc3)cn12 (stereo not drawn) [Example 46, 2-(3-(8-Amino-6-(6-(hydroxymethyl)pyridin-3-yl)imidazo[1,2-a]pyrazin-3-yl)-4-methylphenyl)-1,1-difluoropropan-2-ol trifluoroacetate] |
| < 100 | 100 to 500 | 100 to 500 | Cc1cc(-c2cn3c(-c4cc(C(C)(O)C(F)F)ccc4C)cnc3c(N)n2)on1 (stereo not drawn) [Example 48, 2-(3-(8-Amino-6-(3-methylisoxazol-5-yl)imidazo[1,2-a]pyrazin-3-yl)-4-methylphenyl)-1,1-difluoropropan-2-ol trifluoroacetate] |
| < 100 | 100 to 500 | 100 to 500 | Cc1ccc(C(C)(O)C(F)F)cc1-c1cnc2c(N)nc(-n3cncn3)cn12 (stereo not drawn) [Example 49, 2-(3-(8-Amino-6-(1H-1,2,4-triazol-1-yl)imidazo[1,2-a]pyrazin-3-yl)-4-methylphenyl)-1,1-difluoropropan-2-ol] |
| < 100 | 100 to 500 | 100 to 500 | CCC(O)(c1ccc(C)c(-c2cnc3c(N)nc(-c4ccnn4C)cn23)c1)C(F)F (stereo not drawn) [Example 50, 2-(3-(8-Amino-6-(1-methyl-1H-pyrazol-5-yl)imidazo[1,2-a]pyrazin-3-yl)-4-methylphenyl)-1,1-difluorobutan-2-ol trifluoroacetate] |
| < 100 | 100 to 500 | 100 to 500 | Cc1ccc(C2(O)CCCC2F)cc1-c1cnc2c(N)nc(C(F)(F)F)cn12 (stereo not drawn) [Example 61, 1-(3-(8-Amino-6-(trifluoromethyl)imidazo[1,2-a]pyrazin-3-yl)-4-methylphenyl)-2-fluorocyclopentan-1-ol trifluoroacetate salt] |
| < 100 | 100 to 500 | 100 to 500 | CNC(=O)C1CC1c1cn2c(-c3cc(C(C)(O)C(F)F)ccc3C)cnc2c(N)n1 (stereo not drawn) [Example 76, 2-(8-Amino-3-(5-(1,1-difluoro-2-hydroxypropan-2-yl)-2-methylphenyl)imidazo[1,2-a]pyrazin-6-yl)-N-methylcyclopropane-1-carboxamide] |
| < 100 | 100 to 500 | 100 to 500 | Cc1ccc(C(C)(O)C(F)F)cc1-c1cnc2c(N)nc(C3CC3C(=O)NC(C)(C)CO)cn12 (stereo not drawn) [Example 78, 2-(8-Amino-3-(5-(1,1-difluoro-2-hydroxypropan-2-yl)-2-methylphenyl)imidazo[1,2-a]pyrazin-6-yl)-N-(1-hydroxy-2-methylpropan-2-yl)cyclopropane-1-carboxamide] |
| < 100 | < 100 | 100 to 500 | [2H]C([2H])([2H])c1ccc(C(C)(O)C(F)(F)F)cc1-c1cnc2c(N)nc(C(=O)NCC(C)(C)O)cn12 (stereo not drawn) [Example 81, 8-Amino-N-(2-hydroxy-2-methylpropyl)-3-(2-(methyl-d3)-5-(1,1,1-trifluoro-2-hydroxypropan-2-yl)phenyl)imidazo[1,2-a]pyrazine-6-carboxamide] |
| < 100 | < 100 | < 100 | Cc1ccc(C(O)(C(N)=O)C(F)(F)F)cc1-c1cnc2c(N)nc(C(F)(F)F)cn12 (stereo not drawn) [Example 82, 2-(3-(8-Amino-6-(trifluoromethyl)imidazo[1,2-a]pyrazin-3-yl)-4-methylphenyl)-3,3,3-trifluoro-2-hydroxypropanamide] |
| < 100 | 100 to 500 | < 100 | Cc1ccc(C(O)(C(N)=O)C(F)(F)F)cc1-c1cnc2c(N)nc(C(=O)NC3(C4CC4)CCOC3)cn12 (stereo not drawn) [Example 83, 8-Amino-3-(5-(3-amino-1,1,1-trifluoro-2-hydroxy-3-oxopropan-2-yl)-2-methylphenyl)-N-(3-cyclopropyltetrahydrofuran-3-yl)imidazo[1,2-a]pyrazine-6-carboxamide trifluoroacetate salt] |
| < 100 | 100 to 500 | 100 to 500 | Cc1ccc(C(O)(C(N)=O)C(F)(F)F)cc1-c1cnc2c(N)nc(C(=O)NC3(C)CCOC3C)cn12 (stereo not drawn) [Example 84, 8-Amino-3-(5-(3-amino-1,1,1-trifluoro-2-hydroxy-3-oxopropan-2-yl)-2-methylphenyl)-N-(2,3-dimethyltetrahydrofuran-3-yl)imidazo[1,2-a]pyrazine-6-carboxamide, trifluoroacetate] |
| < 100 | 500 to 2000 | 100 to 500 | Cc1ccc(C(O)(C(N)=O)C(F)(F)F)cc1-c1cnc2c(N)nc(C(=O)NC3(C(F)(F)F)CCOCC3)cn12 (stereo not drawn) [Example 85, 8-Amino-3-(5-(3-amino-1,1,1-trifluoro-2-hydroxy-3-oxopropan-2-yl)-2-methylphenyl)-N-(4-(trifluoromethyl)tetrahydro-2H-pyran-4-yl)imidazo[1,2-a]pyrazine-6-carboxamide, trifluoroacetate] |
| < 100 | 100 to 500 | 100 to 500 | [2H]C([2H])([2H])c1ccc(C(C)(O)C(F)(F)F)cc1-c1cnc2c(N)nc(-c3cnn(C(CC#N)C4CCC4)c3)cn12 (stereo not drawn) [Example 86, 3-(4-(8-Amino-3-(2-(methyl-d3)-5-(1,1,1-trifluoro-2-hydroxypropan-2-yl)phenyl)imidazo[1,2-a]pyrazin-6-yl)-1H-pyrazol-1-yl)-3-cyclobutylpropanenitrile, trifluoroacetate] |
| < 100 | < 100 | 100 to 500 | [2H]C([2H])([2H])c1ccc(C(C)(O)C(F)(F)F)cc1-c1cnc2c(N)nc(-c3cnn4c3CCC4)cn12 (stereo not drawn) [Example 87, 2-(3-(8-Amino-6-(5,6-dihydro-4H-pyrrolo[1,2-b]pyrazol-3-yl)imidazo[1,2-a]pyrazin-3-yl)-4-(methyl-d3)phenyl)-1,1,1-trifluoropropan-2-ol, trifluoroacetate] |
| < 100 | 100 to 500 | 100 to 500 | [2H]C([2H])([2H])c1ccc(C(C)(O)C(F)(F)F)cc1-c1cnc2c(N)nc(-c3cnn(C4(CC#N)CC(C(=O)OC)C4)c3)cn12 (stereo not drawn) [Example 88, Methyl 3-(4-(8-amino-3-(2-(methyl-d3)-5-(1,1,1-trifluoro-2-hydroxypropan-2-yl)phenyl)imidazo[1,2-a]pyrazin-6-yl)-1H-pyrazol-1-yl)-3-(cyanomethyl)cyclobutane-1-carboxylate, trifluoroacetate] |
| < 100 | < 100 | < 100 | Cc1ccc(C(O)(C(N)=O)C(F)F)cc1-c1cnc2c(N)nc(C(F)(F)F)cn12 (stereo not drawn) [Example 89, 2-(3-(8-Amino-6-(trifluoromethyl)imidazo[1,2-a]pyrazin-3-yl)-4-methylphenyl)-3,3-difluoro-2-hydroxypropanamide] |
| < 100 | 100 to 500 | 100 to 500 | Cc1ccc(C(C)(O)C(F)F)cc1-c1cnc2c(N)nc(-c3cnn(C4(CC#N)CN(C(=O)C5CCC5)C4)c3)cn12 (stereo not drawn) [Example 100, 2-(3-(4-(8-amino-3-(5-(1,1-difluoro-2-hydroxypropan-2-yl)-2-methylphenyl)imidazo[1,2-a]pyrazin-6-yl)-1H-pyrazol-1-yl)-1-(cyclobutanecarbonyl)azetidin-3-yl)acetonitrile] |
